Measurements: PubChem BioAssay AID588377 (NMMLSC, 2011)

What follows are molecules tested against Cell division control protein 42 homolog (Homo sapiens) (UniProt P60953) (assay: wildtype Cdc42 GTP-binding inhibitors, SAR follow-up, biochemical, multiplex bead flow cytometry, round 1 (AID 588377)). Details: GST-Cdc42 wt beads, fluorescent GTP binding.
Cell division control protein 42 homolog (Homo sapiens), sequence (P60953 whole entry, looked up): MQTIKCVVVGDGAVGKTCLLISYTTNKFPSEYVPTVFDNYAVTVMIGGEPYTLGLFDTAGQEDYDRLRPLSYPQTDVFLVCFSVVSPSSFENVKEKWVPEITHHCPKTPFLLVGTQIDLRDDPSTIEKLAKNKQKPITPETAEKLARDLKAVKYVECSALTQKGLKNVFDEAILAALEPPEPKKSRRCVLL

EC50 [µM] | Structure (SMILES)
3.94 | O=C(C#Cc1ccccc1)c1cccc([N+](=O)[O-])c1
0.823 | COc1ccc(C2CC(c3ccccc3)=NN2c2ccc(S(N)(=O)=O)cc2)cc1 (stereo not drawn)
4.13 | NS(=O)(=O)c1ccc(N2N=C(c3ccccc3)CC2c2ccccc2)cc1 (stereo not drawn)
